Measurements taken from the supplement of paper PMC10307832.

Columns and labels:
Experiment in all cases: relative viability (nuclei count vs DMSO), 5 days (fraction); higher = more cells survive
[1] = tested on: EKVX
In short: (§1)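 Five library-drug doses in √10 steps were combined with a fixed anchor-drug dose, or a single drug was given alone, by pin tool to lung cancer cell lines in 1536-well plates the day after seeding. Nuclei were stained and counted after 5 days. Relative viability is the nuclei count in treated wells over that in vehicle wells, taken as the median of duplicate plates.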

[2] = tested on: 201T
In short: as §1

[3] = tested on: NCI-H1734
In short: as §1

[4] = tested on: HCC-15
In short: as §1

[5] = tested on: HCC-78
In short: as §1

[6] = tested on: A-427
In short: as §1

[7] = tested on: NCI-H1915
In short: as §1

[8] = tested on: NCI-H647
In short: as §1

[9] = tested on: NCI-H522
In short: as §1

[10] = tested on: NCI-H1993
In short: as §1

[11] = tested on: PC-14
In short: as §1

[12] = tested on: LK-2
In short: as §1

[13] = tested on: HOP-62
In short: as §1

[14] = tested on: COR-L 105
In short: as §1

[15] = tested on: NCI-H661
In short: as §1

[16] = tested on: COR-L23
In short: as §1

[17] = tested on: SK-MES-1
In short: as §1

[18] = tested on: BEN
In short: as §1

[19] = tested on: EMC-BAC-2
In short: as §1

[20] = tested on: NCI-H2405
In short: as §1

[21] = tested on: HCC-366
In short: as §1

[22] = tested on: NCI-H460
In short: as §1

In the case of `Cc1cn(-c2cc(NC(=O)c3ccc(C)c(Nc4nccc(-c5cccnc5)n4)c3)cc(C(F)(F)F)c2)cn1` [Nilotinib] + O=C(c1cc(Cc2n[nH]c(=O)c3ccccc23)ccc1F)N1CCN(C(=O)C2CC2)CC1 [Olaparib] (partner 8 µM), the relative viability ([1]; first compound 0.001 µM) is reported as 0.735, the relative viability ([1]; first compound 0.003162 µM) is reported as 1.08 and the relative viability ([1]; first compound 0.01 µM) is reported as 1.23. For the same compound, the relative viability ([1]; first compound 0.03162 µM) was 0.834, the relative viability ([1]; first compound 0.1 µM) was 1.07 and the relative viability ([2]; first compound 0.001 µM) was 0.843. The relative viability ([2]; first compound 0.003162 µM) was 0.876, the relative viability ([2]; first compound 0.01 µM) was 0.959 and the relative viability ([2]; first compound 0.03162 µM) was 0.935. It also gave a relative viability ([2]; first compound 0.1 µM) of 0.869, a relative viability ([3]; first compound 0.001 µM) of 0.576 and a relative viability ([3]; first compound 0.003162 µM) of 0.656. It also gave a relative viability ([3]; first compound 0.01 µM) of 0.689, a relative viability ([3]; first compound 0.03162 µM) of 0.543 and a relative viability ([3]; first compound 0.1 µM) of 0.497. The relative viability ([4]; first compound 0.001 µM) was 0.612, the relative viability ([4]; first compound 0.003162 µM) was 0.778 and the relative viability ([4]; first compound 0.01 µM) was 0.734. It also gave a relative viability ([4]; first compound 0.03162 µM) of 0.692, a relative viability ([4]; first compound 0.1 µM) of 0.638 and a relative viability ([5]; first compound 0.001 µM) of 0.748. For the same compound, the relative viability ([5]; first compound 0.003162 µM) was 0.602, the relative viability ([5]; first compound 0.01 µM) was 0.877 and the relative viability ([5]; first compound 0.03162 µM) was 0.768. For the same compound, the relative viability ([5]; first compound 0.1 µM) was 0.752, the relative viability ([6]; first compound 0.001 µM) was 0.76 and the relative viability ([6]; first compound 0.003162 µM) was 0.874. For the same compound, the relative viability ([6]; first compound 0.01 µM) was 0.86, the relative viability ([6]; first compound 0.03162 µM) was 0.804 and the relative viability ([6]; first compound 0.1 µM) was 0.936. For the same compound, the relative viability ([7]; first compound 0.003162 µM) was 0.267, the relative viability ([7]; first compound 0.01 µM) was 0.244 and the relative viability ([7]; first compound 0.03162 µM) was 0.255. For the same compound, the relative viability ([7]; first compound 0.1 µM) was 0.187, the relative viability ([8]; first compound 0.001 µM) was 0.527 and the relative viability ([8]; first compound 0.003162 µM) was 0.735. For the same compound, the relative viability ([8]; first compound 0.01 µM) was 0.649, the relative viability ([8]; first compound 0.03162 µM) was 0.482 and the relative viability ([8]; first compound 0.1 µM) was 0.544. It also gave a relative viability ([9]; first compound 0.01 µM) of 0.66, a relative viability ([9]; first compound 0.03162 µM) of 0.625 and a relative viability ([9]; first compound 0.1 µM) of 0.565. For the same compound, the relative viability ([10]; first compound 0.001 µM) was 0.957, the relative viability ([10]; first compound 0.003162 µM) was 1.1 and the relative viability ([10]; first compound 0.01 µM) was 1.75. The relative viability ([10]; first compound 0.03162 µM) was 1.01, the relative viability ([10]; first compound 0.1 µM) was 1.23 and the relative viability ([11]; first compound 0.001 µM) was 0.266. The relative viability ([11]; first compound 0.003162 µM) was 0.253, the relative viability ([11]; first compound 0.01 µM) was 0.264 and the relative viability ([11]; first compound 0.03162 µM) was 0.264. For the same compound, the relative viability ([11]; first compound 0.1 µM) was 0.339, the relative viability ([12]; first compound 0.001 µM) was 0.673 and the relative viability ([12]; first compound 0.003162 µM) was 0.947. The relative viability ([12]; first compound 0.01 µM) was 0.839, the relative viability ([12]; first compound 0.03162 µM) was 0.453 and the relative viability ([12]; first compound 0.1 µM) was 0.681. It also gave a relative viability ([13]; first compound 0.003162 µM) of 0.38, a relative viability ([13]; first compound 0.01 µM) of 0.393 and a relative viability ([13]; first compound 0.03162 µM) of 0.403. The relative viability ([13]; first compound 0.1 µM) was 0.352, the relative viability ([14]; first compound 0.001 µM) was 0.629 and the relative viability ([14]; first compound 0.003162 µM) was 0.688. The relative viability ([14]; first compound 0.01 µM) was 0.645, the relative viability ([14]; first compound 0.03162 µM) was 0.636 and the relative viability ([14]; first compound 0.1 µM) was 1.09. It also gave a relative viability ([15]; first compound 0.001 µM) of 0.754, a relative viability ([15]; first compound 0.003162 µM) of 0.893 and a relative viability ([15]; first compound 0.01 µM) of 0.949. The relative viability ([15]; first compound 0.03162 µM) was 0.672, the relative viability ([15]; first compound 0.1 µM) was 0.748 and the relative viability ([16]; first compound 0.001 µM) was 0.356. It also gave a relative viability ([16]; first compound 0.003162 µM) of 0.319, a relative viability ([16]; first compound 0.01 µM) of 0.396 and a relative viability ([16]; first compound 0.03162 µM) of 0.306. It also gave a relative viability ([16]; first compound 0.1 µM) of 0.288, a relative viability ([17]; first compound 0.001 µM) of 0.611 and a relative viability ([17]; first compound 0.003162 µM) of 0.696. The relative viability ([17]; first compound 0.01 µM) was 0.778, the relative viability ([17]; first compound 0.03162 µM) was 0.573 and the relative viability ([17]; first compound 0.1 µM) was 0.432. For the same compound, the relative viability ([18]; first compound 0.001 µM) was 1.11, the relative viability ([18]; first compound 0.003162 µM) was 1.1 and the relative viability ([18]; first compound 0.01 µM) was 1.25. The relative viability ([18]; first compound 0.03162 µM) was 0.996, the relative viability ([18]; first compound 0.1 µM) was 1 and the relative viability ([19]; first compound 0.001 µM) was 0.43. The relative viability ([19]; first compound 0.003162 µM) was 0.448, the relative viability ([19]; first compound 0.01 µM) was 0.49 and the relative viability ([19]; first compound 0.03162 µM) was 0.497. For the same compound, the relative viability ([19]; first compound 0.1 µM) was 0.521, the relative viability ([20]; first compound 0.001 µM) was 0.837 and the relative viability ([20]; first compound 0.003162 µM) was 0.878. It also gave a relative viability ([20]; first compound 0.01 µM) of 0.858, a relative viability ([20]; first compound 0.03162 µM) of 0.728 and a relative viability ([20]; first compound 0.1 µM) of 0.629. For the same compound, the relative viability ([21]; first compound 0.001 µM) was 0.272, the relative viability ([21]; first compound 0.003162 µM) was 0.327 and the relative viability ([21]; first compound 0.01 µM) was 0.339. It also gave a relative viability ([21]; first compound 0.03162 µM) of 0.281, a relative viability ([21]; first compound 0.1 µM) of 0.281 and a relative viability ([22]; first compound 0.001 µM) of 0.318. It also gave a relative viability ([22]; first compound 0.003162 µM) of 0.295, a relative viability ([22]; first compound 0.01 µM) of 0.496 and a relative viability ([22]; first compound 0.03162 µM) of 0.27. It also gave a relative viability ([22]; first compound 0.1 µM) of 0.34.
